Measured values reported in patent publication US20080145346A1, “Methods And Compounds For Altering The Load Of Hepatitis Virus” (Agency for Science, Technology and Research, priority 2003, published 2008).

Test system: hnRNP K
Assay: Electrophoretic Mobility Shift Assay (EMSA) of HBV enhancer II probes with HepG2 nuclear extracts
Type: binding, human
Settings: 10 μg HepG2 nuclear extracts; 32P end-labelled 28-mer probe
Method: 28-mer oligonucleotide probes were designed to contain either the 1752A or 1752G nucleotide with control probes taken from the adjacent upstream sequence. EMSA was performed using HepG2 nuclear extracts with the four respective probes. Probe 1 (SEQ ID NO: 12): Lanes 1 to 4; Probe 2 (SEQ ID NO: 13, A^1752): Lanes 5 to 8; Probe 3 (SEQ ID NO: 14): Lanes 9 to 12; Probe 4 (SEQ ID NO: 15, G^1752): Lanes 13 to 16. Each set of probes contains increasing concentrations (0.0 μg, 0.05 μg, 0.10 μg and 0.15 μg) of non-specific competitor DNA of [poly-(dI)-poly-(dC)] respectively. This competitor DNA is included to minimize the binding of nonspecific proteins to the labeled probes. DNA-protein complexes migrate at a different speed than free DNA molecules. […] Verification of the presence of hnRNP K as the second component in the complex can subsequently be performed by an analysis as shown in FIG. 19. hnRNP K was detected using the 1752A probe (Probe 2, lanes 5 to 8) along with a weaker band of similar size using the 1752G probe (Probe 4, lanes 13 to 16). […]
HBV-hnRNP K interaction was analysed by a method that is known to persons skilled in the art as an “electrophoretic mobility shift assay” or “EMSA”. […] The 1752A probe (Probe 2, lanes 5 to 8) detected hnRNP K in form of a band. A corresponding weaker band of hnRNP was detected by the 1752G probe (Probe 4, lanes 13 to 16 in FIG. 18).

Sequence: AGTTGGGGGAGGAGATTAGGTTAAAGGT (listed as DNA, chemistry not given here) [Probe 2, 28-mer HBV enhancer II oligonucleotide probe containing 1752A]
- densitometric band signal of hnRNP K higher than that detected by Probe 4: about 300%
